Article PMC2749862, “Glucocorticoids with different chemical structures but similar glucocorticoid receptor potency regulate subsets of common and unique genes in human trabecular meshwork cells” (BMC Medical Genomics, 2009)
“And” between values parts separate entries of the source, which are not always exact repeats. Equal entries are not always repeated. Blank lines part the entries; values can stand above or below the compound they belong to.

Assays:
TM 86 cells = assay: Microarray gene expression profiling in TM 86 cells (with IPA and GoMiner analysis); format: cell-based, human; conditions: 1 μM, 24 hr
Source text: (§1) Cells were maintained in low glucose Dulbecco's Modified Eagle Medium (DMEM, Invitrogen, Carlsbad, CA) supplemented with 10% (vol/vol) FBS (American Type Culture Collection, Manassas, VA), 1% (vol/vol) penicillin and streptomycin (Invitrogen). Cells from the human HeLa cervical adenocarcinoma cell line (American Type Culture Collection) were maintained in α-MEM medium supplemented with 10% (v/v) FBS, 1% (v/v) penicillin and streptomycin. All cells were used within passages 3 to 6. […] Cells were maintained for one week with medium renewal every other day. The day before the experiment, confluent TM were washed once with phosphate-buffered saline (PBS) and then the cells were maintained in 1% FBS-containing medium with antibiotics. […] Control cells were treated with 0.1%(v/v) dimethylsulfoxide (DMSO). At the end of GC treatment, supernatant was discarded and the cell monolayer was kept frozen at -80°C for subsequent total RNA extraction and gene expression profiling. […] Briefly, RNA was isolated from flash frozen cell culture plates using RNeasy Mini columns (Qiagen, Valencia, CA) according to the manufacturer's protocol. There were three biological replicates per treatment condition. The quantity and purity of the extracted RNA was evaluated using a NanoDrop ND-1000 spectrophotometer (Nanodrop Technologies, Wilmington, DE, USA) and its integrity measured using an Agilent Bioanalyzer. […] The amount and quality of the fluorescently labeled cRNA was assessed using a NanoDrop ND-1000 spectrophotometer and an Agilent Bioanalyzer. An equal amount of Cy3-labeled cRNA (1.6 μg) was hybridized to the Agilent Human Whole Genome Oligo Microarray (Agilent Technologies) for 17 hours, prior to washing and scanning. Data were extracted from scanned images using Agilent's Feature Extraction Software (Agilent Technologies) using default settings. […] The full complement of microarray data has been deposited in the NIH/NLM Gene Expression Omnibus (GEO accession # GSE16643). […] The lists of differentially expressed genes were also applied to global functional, network and canonical pathway analyses using Ingenuity Pathway Analysis (Ingenuity® Systems, Redwood City, CA).

glucocorticoid receptor [1] = target: T1, glucocorticoid receptor (Homo sapiens, UniProt P04150); assay: GeneBLAzer beta-lactamase reporter gene assay, GR transactivation in MMTV-bla HeLa CellSensor cells; format: cell-based; conditions: 5 hr treatment
T1 sequence (P04150 524-777 limits assumed): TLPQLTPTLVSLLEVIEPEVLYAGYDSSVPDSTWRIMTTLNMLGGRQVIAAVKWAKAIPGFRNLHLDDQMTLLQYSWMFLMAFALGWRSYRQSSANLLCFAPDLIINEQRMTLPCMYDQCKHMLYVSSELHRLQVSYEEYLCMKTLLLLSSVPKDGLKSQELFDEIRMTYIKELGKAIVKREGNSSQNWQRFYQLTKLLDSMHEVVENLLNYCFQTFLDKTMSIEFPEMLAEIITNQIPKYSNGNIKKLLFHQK
Procedure: GR transactivation activity was assessed by the Invitrogen SelectScreen Profiling Service (Madison, WI), using Invitrogen GeneBLAzer beta-lactamase reporter gene technology. Profiling was performed using human HeLa cells stably transfected with an expression construct containing β-lactamase cDNA under the control of the MMTV response element previously identified as a GR response element (MMTV-bla HeLa CellSensor®). The MMTV-bla HeLa cells were plated in 384-well plates in 32 μl assay medium (OPTIMEM + 1% charcoal/dextran stripped FBS) at a density of 10,000 cells/well and incubated overnight. […] The β-lactamase activity of each sample was determined by adding 8 μl of 6-fold concentrated LiveBLAzer™ substrate solution to the samples followed by two hours of incubation at room temperature in a Tecan Safire2 plate reader using the appropriate LiveBLAzer™ filter settings. GC treatment was performed in 15-point dose response using a three-fold dilution series starting with a maximum compound concentration of 10 μM. Each data point represents a triplicate sample (n = 3). Assay reproducibility was determined by calculating Z' values for untreated vs. maximum stimulation. The GeneBLAzer assay was performed twice.

glucocorticoid receptor [2] = target: T1, glucocorticoid receptor; assay: GR radiolabeled competitive binding assay (IM-9 cell cytosol, [3H]dexamethasone; Cerep); conditions: for nH (Hill coefficient): IM-9 cell cytosol competition curves; for Ki: IM-9 cell cytosol, calculated by Cheng Prusoff equation; for IC50: read-out: GR binding affinity IC50
Procedure: GR binding affinity assay was performed at Cerep Inc. (Celle l'Evescault, France), according to an established method. […] Nonspecific binding is determined in the presence of 10 μM triamcinolone. Following incubation, the samples are filtered rapidly under vacuum through glass fiber filters (GF/B, Packard) presoaked with 0.3% Poly(ethyleneimine) and rinsed several times with ice-cold 50 mM Tris-HCl using a 96-sample cell harvester (Unifilter, Packard). The filters are dried and counted for radioactivity in a scintillation counter (Topcount, Packard) using a scintillation cocktail (Microscint 0, Packard). The results are expressed as percent inhibition of the control radioligand specific binding. The IC50 values (concentration causing half-maximal inhibition of control specific binding) and Hill coefficients (nH) were determined by non-linear regression analysis of the competition curves generated with mean replicate values using Hill equation curve fitting (Y = D + [(A - D)/(1 + (C/C50)^nH)], where Y = specific binding, D = minimum specific binding, A = maximum specific binding, C = compound concentration, C50 = IC50, and nH = slope factor). […] The inhibition constants (Ki) were calculated using the Cheng Prusoff equation (Ki = IC50/(1+(L/KD)), where L = concentration of radioligand in the assay, and KD = affinity of the radioligand for the receptor). […] The GR binding assay was performed in duplicate.

TM 93 cells = assay: Microarray gene expression profiling in TM 93 cells (with IPA and GoMiner analysis); format: cell-based, human; conditions: 1 μM, 24 hr
Source text: as §1

[3] = human, following local administration; cited from earlier work

- EC50 (glucocorticoid receptor [1]): 0.7 nM and 0.67 nM
- nH (Hill coefficient) (glucocorticoid receptor [2]): 1.10 ± 0.00
- Ki (glucocorticoid receptor [2]): 0.97 ± 0.17 nM
- IC50 (glucocorticoid receptor [2]): 2 ± 0.42 nM
SMILES: CC1(C)O[C@@H]2C[C@H]3[C@@H]4C[C@H](F)C5=CC(=O)C=C[C@]5(C)[C@@]4(F)[C@@H](O)C[C@]3(C)[C@]2(C(=O)CO)O1 [FA, fluocinolone acetonide]
- function of significantly regulated transcripts (Ingenuity Pathway Analysis) (TM 86 cells): lipid metabolism
- number of genes uniquely regulated by each GC (TM 86 cells): 693
- significantly regulated biological process (GoMiner gene ontology) (TM 86 cells): actin filament-based process
- significantly regulated network (Ingenuity Pathway Analysis) (TM 86 cells): a GR-dependent network
- ANGPTL4 FC (fold change) (TM 86 cells; microarray): 9.6 fold
- ANGPTL7 FC (fold change) (TM 86 cells; microarray): 16.0 fold
- AQP1 FC (fold change) (TM 86 cells; microarray): -4.4 fold
- CCRL1 FC (fold change) (TM 86 cells; microarray): -4.7 fold
- CXADR FC (fold change) (TM 86 cells; microarray): -3.4 fold
- FKBP5 FC (fold change) (TM 86 cells; microarray): 13.8 fold
- GABRB1 FC (fold change) (TM 86 cells; microarray): -4.0 fold
- ITGA10 FC (fold change) (TM 86 cells; microarray): 25.1 fold
- KAL1 FC (fold change) (TM 86 cells; microarray): -5.6 fold
- KCNB1 FC (fold change) (TM 86 cells; microarray): 20.1 fold
- KIF4A FC (fold change) (TM 86 cells; microarray): -3.6 fold
- KLF15 FC (fold change) (TM 86 cells; microarray): 11.5 fold
- LSP1 FC (fold change) (TM 86 cells; microarray): 14.9 fold
- MXRA5 FC (fold change) (TM 86 cells; microarray): -4.3 fold
- MYOC FC (fold change) (TM 86 cells; microarray): 7.4 fold
- PCDH19 FC (fold change) (TM 86 cells; microarray): -5.1 fold
- PER3 FC (fold change) (TM 86 cells; microarray): -5.3 fold
- PF4 FC (fold change) (TM 86 cells; microarray): 3.1 fold and 3.2 fold
- RASL11B FC (fold change) (TM 86 cells; microarray): -4.9 fold
- RGC32 FC (fold change) (TM 86 cells; microarray): >100 fold
- SAA1 FC (fold change) (TM 86 cells; microarray): 34.6 fold
- ZBTB16 FC (fold change) (TM 86 cells; microarray): 8.7 fold
- function of significantly regulated genes (Ingenuity Pathway Analysis) (TM 93 cells): cell cycle
- number of genes uniquely regulated by each GC (TM 93 cells): 2294
- significantly regulated biological process (GoMiner gene ontology) (TM 93 cells): biopolymer metabolic process
- significantly regulated network (Ingenuity Pathway Analysis) (TM 93 cells): JARID1B-based network
- ANGPTL4 FC (fold change) (TM 93 cells; microarray): 9.1 fold
- ANGPTL7 FC (fold change) (TM 93 cells; microarray): 13.0 fold
- AQP1 FC (fold change) (TM 93 cells; microarray): -3.2 fold
- CCRL1 FC (fold change) (TM 93 cells; microarray): -2.5 fold
- CXADR FC (fold change) (TM 93 cells; microarray): -1.8 fold
- ENST00000344214 FC (fold change) (TM 93 cells; microarray): -6.3 fold
- FKBP5 FC (fold change) (TM 93 cells; microarray): 6.8 fold
- GABRB1 FC (fold change) (TM 93 cells; microarray): -2.2 fold
- ITGA10 FC (fold change) (TM 93 cells; microarray): 9.1 fold
- KAL1 FC (fold change) (TM 93 cells; microarray): -3.0 fold
- KCNB1 FC (fold change) (TM 93 cells; microarray): 5.2 fold
- KIF4A FC (fold change) (TM 93 cells; microarray): -2.2 fold
- KLF15 FC (fold change) (TM 93 cells; microarray): 3.6 fold
- LSP1 FC (fold change) (TM 93 cells; microarray): 18.0 fold
- MXRA5 FC (fold change) (TM 93 cells; microarray): -4.5 fold
- MYOC FC (fold change) (TM 93 cells; microarray): 2.7 fold
- OCA2 FC (fold change) (TM 93 cells; microarray): 98.0 fold
- PCDH19 FC (fold change) (TM 93 cells; microarray): -3.9 fold
- PER3 FC (fold change) (TM 93 cells; microarray): -3.6 fold
- PF4 FC (fold change) (TM 93 cells; microarray): 6.5 fold
- RGC32 FC (fold change) (TM 93 cells; microarray): 11.0 fold
- SAA1 FC (fold change) (TM 93 cells; microarray): 8.3 fold
- ZBTB16 FC (fold change) (TM 93 cells; microarray): 4.9 fold

SMILES: CC1(C)O[C@@H]2C[C@H]3[C@@H]4CCC5=CC(=O)C=C[C@]5(C)[C@@]4(F)[C@@H](O)C[C@]3(C)[C@]2(C(=O)CO)O1 [TA, triamcinolone acetonide]
- function of significantly regulated transcripts (Ingenuity Pathway Analysis) (TM 86 cells): cell morphology
- number of genes uniquely regulated by each GC (TM 86 cells): 388
- significantly regulated biological process (GoMiner gene ontology) (TM 86 cells): mitotic cell cycle
- ANGPTL4 FC (fold change) (TM 86 cells; microarray): 7.9 fold
- ANGPTL7 FC (fold change) (TM 86 cells; microarray): 26.5 fold
- AQP1 FC (fold change) (TM 86 cells; microarray): -5.1 fold
- CCRL1 FC (fold change) (TM 86 cells; microarray): -3.4 fold
- CXADR FC (fold change) (TM 86 cells; microarray): -4.8 fold
- ENST00000344214 FC (fold change) (TM 86 cells; microarray): -3.1 fold
- FKBP5 FC (fold change) (TM 86 cells; microarray): 12.5 fold
- GABRB1 FC (fold change) (TM 86 cells; microarray): -4.9 fold
- ITGA10 FC (fold change) (TM 86 cells; microarray): 17.7 fold
- KAL1 FC (fold change) (TM 86 cells; microarray): -6.7 fold
- KCNB1 FC (fold change) (TM 86 cells; microarray): 19.9 fold
- KIF4A FC (fold change) (TM 86 cells; microarray): -4.1 fold
- KLF15 FC (fold change) (TM 86 cells; microarray): 11.1 fold
- LSP1 FC (fold change) (TM 86 cells; microarray): 15.4 fold
- MXRA5 FC (fold change) (TM 86 cells; microarray): -5.4 fold
- MYOC FC (fold change) (TM 86 cells; microarray): 6.7 fold
- PCDH19 FC (fold change) (TM 86 cells; microarray): -5.0 fold
- PER3 FC (fold change) (TM 86 cells; microarray): -7.0 fold
- RASL11B FC (fold change) (TM 86 cells; microarray): -4.0 fold
- RGC32 FC (fold change) (TM 86 cells; microarray): >100 fold
- SAA1 FC (fold change) (TM 86 cells; microarray): 35.3 fold
- ZBTB16 FC (fold change) (TM 86 cells; microarray): 8.1 fold
- ocular tissue concentrations [3]: > 1 µM
- EC50 (glucocorticoid receptor [1]): 1.29 ± 0.28 nM
- nH (Hill coefficient) (glucocorticoid receptor [2]): 1.05 ± 0.07
- Ki (glucocorticoid receptor [2]): 0.72 ± 0.24 nM
- IC50 (glucocorticoid receptor [2]): 1.45 ± 0.5 nM
- function of significantly regulated genes (Ingenuity Pathway Analysis) (TM 93 cells): cell adhesion
- number of genes uniquely regulated by each GC (TM 93 cells): 555
- significantly regulated biological process (GoMiner gene ontology) (TM 93 cells): smooth muscle cell proliferation
- ANGPTL4 FC (fold change) (TM 93 cells; microarray): 5.3 fold
- ANGPTL7 FC (fold change) (TM 93 cells; microarray): 20.5 fold
- AQP1 FC (fold change) (TM 93 cells; microarray): -2.8 fold
- CCRL1 FC (fold change) (TM 93 cells; microarray): -2.1 fold
- CXADR FC (fold change) (TM 93 cells; microarray): -2.6 fold
- FKBP5 FC (fold change) (TM 93 cells; microarray): 5.8 fold
- GABRB1 FC (fold change) (TM 93 cells; microarray): -2.6 fold
- ITGA10 FC (fold change) (TM 93 cells; microarray): 5.6 fold
- KAL1 FC (fold change) (TM 93 cells; microarray): -3.3 fold
- KCNB1 FC (fold change) (TM 93 cells; microarray): 11.3 fold
- KIF4A FC (fold change) (TM 93 cells; microarray): -2.3 fold
- KLF15 FC (fold change) (TM 93 cells; microarray): 3.9 fold
- MXRA5 FC (fold change) (TM 93 cells; microarray): -4.5 fold
- MYOC FC (fold change) (TM 93 cells; microarray): 2.6 fold
- OCA2 FC (fold change) (TM 93 cells; microarray): >100 fold
- PCDH19 FC (fold change) (TM 93 cells; microarray): -3.3 fold
- PER3 FC (fold change) (TM 93 cells; microarray): -3.8 fold
- PF4 FC (fold change) (TM 93 cells; microarray): 4.4 fold
- RGC32 FC (fold change) (TM 93 cells; microarray): 19.9 fold
- SAA1 FC (fold change) (TM 93 cells; microarray): 11.9 fold
- ZBTB16 FC (fold change) (TM 93 cells; microarray): 5.5 fold
